{"source": "patent US9945862B2", "about": "“Biomarkers for predicting and assessing responsiveness of thyroid and kidney cancer subjects to lenvatinib compounds” (Eisai R&D Management Co., Ltd., priority 2011, dated 2018)", "key": {"[1]": {"tested_on": "differentiated thyroid cancer patients", "assay": "Progression free survival of E7080-treated DTC patients (Logrank test, Cox proportional hazards model with or without PK covariate)", "assay_type": "in vivo, human", "settings": "patients with mutations in NRAS alone or in either NRAS or KRAS vs wild type for NRAS or KRAS", "procedure": "The period during which a patient takes E7080 was artificially divided into different Cycles for ease of evaluation and tracking. Patients received E7080 at a dose of 24 mg oral once daily in 28 day cycles. For analysis purposes, assessments of clinical outcomes were performed at the time of the 9 month and at 14 month minimum follow-up. For the E7080 Thyroid Cancer trial, each Cycle is 28 days (4 weeks) so Day 1-28 is cycle 1; Day 29 is Day 1 of Cycle 2; and Day 57 is Day 1 of Cycle 3. Blood samples were collected for pharmacokinetic (PK) analysis on Cycle 1 Days 1 and 8, Cycle 2 Day 1, and Cycle 3 Day 1. A total of 9 samples per patient were collected as follows: Cycle 1 Day 1: immediately prior to the dose of E7080, and at 0.5 and 2 hours following the first dose of E7080 (post-dose); Cycle 1 Day 8: immediately prior to the dose of E7080; Cycle 2 Day 1: immediately prior to the dose of E7080, 0.5 and 2 hours post-dose; Cycle 3 Day 1: immediately prior to the dose of E7080 and 2 hours post-dose. For analysis of progression free survival, PK parameter was used as a covariate in Cox proportional hazards model. […]\nThe association of gene mutations with progression free survival of treated patients was analyzed first by performing Logrank test and then using Cox proportional hazards model with or without covariates. […]"}, "[2]": {"tested_on": "differentiated thyroid cancer patients", "assay": "Multivariate prediction models of PFS combining mutations and blood biomarkers (Cox proportional hazards model, hazard threshold, log rank test)", "assay_type": "in vivo, human", "settings": "pre-treatment", "procedure": "All factors (i.e., mutations, thyroglobulin, cytokine, chemokine and angiogenic factors) were used as independent variables of interest, that is, as biomarker candidates. PFS was used as a dependent variable, that is, as one of the clinical outcomes, in this analysis. Firstly, all factors were screened according to p-values calculated by Cox proportional hazards model with single factor. Secondly, all combinations of the screened factors were tested by Cox proportional hazards model to find significant factors in all combinations of the factors. Combinations in which all factors were significant were chosen for further analysis. Hazard functions of the combinations of factors defined by their coefficients were obtained from this analysis. Each patient has his/her own hazard value for each model, so that patients can be assigned into two groups when a threshold of hazard is given for a model. After grouping patients, log rank test of progression free survival was performed to test difference of survival curves between two groups (low hazard and high hazard). The best threshold of hazard for each model of combination of factors was identified by sweeping threshold to calculate log rank test p-values and finding a threshold that minimized the smoothed curve constructed from the p-values, which was similar to the approach described in U. Abel, J. Berger and H. Wiebelt, “CRITLEVEL: An Exploratory Procedure for the Evaluation of Quantitative Prognostic Factors”, Methods Inf. Medicine, 23(3):154-6(1984). The best thresholds of the models divided patients into high and low hazard groups. Patients are predicted as longer PFS when their hazard value is lower than the threshold."}}, "note": "“Also recorded” adds a separate entry of the source.", "data": [{"smiles": "COc1cc2nccc(Oc3ccc(NC(=O)NC4CC4)c(Cl)c3)c2cc1C(N)=O", "note": "[E7080, 4-(3-chloro-4-(cyclopropylaminocarbonyl)aminophenoxy)-7-methoxy-6-quinolinecarboxamide]", "values": [{"measurement": "Progression free survival, Logrank test", "setting": "[1]", "value": "better progression free survival; also recorded: better PFS"}, {"measurement": "HR (low vs high hazard group, PFS)", "setting": "[2]; prediction model: ANG-2", "value": 0.545}, {"measurement": "HR (low vs high hazard group, PFS)", "setting": "[2]; prediction model: IL13 + MIP1a", "value": "1.00E−09"}, {"measurement": "HR (low vs high hazard group, PFS)", "setting": "[2]; prediction model: IL13 + MIP1a + MIP1b", "value": 0.121}, {"measurement": "HR (low vs high hazard group, PFS)", "setting": "[2]; prediction model: NRAS mutation + ANG-2 (log10(ANg2))", "value": 0.115}, {"measurement": "HR (low vs high hazard group, PFS)", "setting": "[2]; prediction model: NRAS mutation + ANG-2 (log10(Ang290))", "value": 0.085}, {"measurement": "HR (low vs high hazard group, PFS)", "setting": "[2]; prediction model: NRAS mutation + VEGFA + ANG-2 + MIP1b + sVEGFR3", "value": "2.60E−10"}, {"measurement": "HR (low vs high hazard group, PFS)", "setting": "[2]; prediction model: NRAS mutation + VEGFA + MIP1b", "value": 0.097}, {"measurement": "HR (low vs high hazard group, PFS)", "setting": "[2]; prediction model: NRAS mutation + VEGFA + MIP1b + sVEGFR3", "value": 0.054}, {"measurement": "HR (low vs high hazard group, PFS)", "setting": "[2]; prediction model: NRAS mutation, D(NRAS, MU)", "value": 0.124}, {"measurement": "HR (low vs high hazard group, PFS)", "setting": "[2]; prediction model: VEGFA", "value": 0.552}, {"measurement": "HR (low vs high hazard group, PFS)", "setting": "[2]; prediction model: VEGFA + ANG-2", "value": 0.386}, {"measurement": "HR (low vs high hazard group, PFS)", "setting": "[2]; prediction model: VEGFA + ANG-2 + GCSF", "value": 0.413}, {"measurement": "HR (low vs high hazard group, PFS)", "setting": "[2]; prediction model: mutation in any of BRAF, KRAS, NRAS + MIP1a", "value": 0.086}, {"measurement": "HR (low vs high hazard group, PFS)", "setting": "[2]; prediction model: mutation in any of BRAF, KRAS, NRAS + VEGFA + MIP1a + MIP1b + IL-6", "value": "1.90E−10"}, {"measurement": "HR (low vs high hazard group, PFS)", "setting": "[2]; prediction model: mutation in any of KRAS, NRAS + ANG-2", "value": 0.083}, {"measurement": "HR (low vs high hazard group, PFS)", "setting": "[2]; prediction model: mutation in any of KRAS, NRAS, D(KRASNRAS, MU)", "value": 0.205}]}]}
